Experimental data reported in US10556902B2 (Asceneuron SA, priority 2016, dated 2020).
Where two headings read alike, the source gives them in different places.

Molecular target: His-Tagged hOGA (human O-GlcNAcase) (Homo sapiens (Human), UniProt O60502)
Experiment: Human O-GlcNAcase enzyme inhibition assay;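 note: reactions contained 20 nM His-tagged hOGA enzyme with 10 µM FL-GlcNAc substrate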
Type: biochemical
Details: FL-GlcNAc substrate
[1] = OGA enzyme inhibition assay, pH 6.5, activity classes defined in μM, read-out: OGA IC50

Chain of His-Tagged hOGA (human O-GlcNAcase) (O60502 whole entry): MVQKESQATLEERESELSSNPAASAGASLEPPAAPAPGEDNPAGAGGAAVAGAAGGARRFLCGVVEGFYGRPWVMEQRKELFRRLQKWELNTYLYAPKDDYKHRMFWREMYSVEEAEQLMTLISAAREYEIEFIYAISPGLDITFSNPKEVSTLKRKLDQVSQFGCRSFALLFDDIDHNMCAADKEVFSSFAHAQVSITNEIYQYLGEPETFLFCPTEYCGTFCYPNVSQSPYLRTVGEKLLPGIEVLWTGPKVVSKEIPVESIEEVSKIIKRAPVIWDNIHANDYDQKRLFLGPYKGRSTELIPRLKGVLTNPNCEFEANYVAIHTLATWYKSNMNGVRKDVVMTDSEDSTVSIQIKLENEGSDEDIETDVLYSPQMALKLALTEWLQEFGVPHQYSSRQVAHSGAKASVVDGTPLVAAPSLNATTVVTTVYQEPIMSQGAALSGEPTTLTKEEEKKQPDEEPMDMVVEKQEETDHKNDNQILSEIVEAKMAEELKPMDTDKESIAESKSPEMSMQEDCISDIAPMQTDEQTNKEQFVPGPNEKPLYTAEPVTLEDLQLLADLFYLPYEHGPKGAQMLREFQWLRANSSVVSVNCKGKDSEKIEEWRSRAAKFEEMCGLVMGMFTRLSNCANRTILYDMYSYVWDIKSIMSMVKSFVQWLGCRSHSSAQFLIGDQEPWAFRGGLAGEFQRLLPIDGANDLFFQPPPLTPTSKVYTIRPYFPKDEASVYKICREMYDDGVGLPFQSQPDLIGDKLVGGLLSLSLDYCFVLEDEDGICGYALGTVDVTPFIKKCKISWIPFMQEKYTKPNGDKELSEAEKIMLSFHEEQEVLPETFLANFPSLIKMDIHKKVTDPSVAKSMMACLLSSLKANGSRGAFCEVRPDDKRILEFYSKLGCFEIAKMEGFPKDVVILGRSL
Procedure: Then, 20 nM of His-Tagged hOGA and 10 μM of FL-GlcNAc (Fluorescein mono-beta-D-(2-deoxy-2-N-acetyl) glucopyranoside; Marker Gene Technologies Inc, M1485) were added to the 384-well plate for a final volume of 20 μl.

SMILES	IC50 [1]	IC50 (OGA IC50 (M), pH 6.5, activity classes defined in μM)
CC(c1ccc2nccnc2c1)N1CCN(c2ncc(C(C)(C)O)cn2)CC1 (racemic) [Example 85, 2-(2-(4-(1-(quinoxalin-6-yl)ethyl)piperazin-1-yl)pyrimidin-5-yl) propan-2-ol]	0.05 to 0.2 µM	–
Cc1cnc(N2CCN(C(C)c3ccc4c(c3)OCC4)CC2)nc1 (racemic) [Example 90, 2-(4-(1-(2,3-dihydrobenzofuran-6-yl)ethyl)piperazin-1-yl)-5-methylpyrimidine]	< 0.05 µM	–
CC(c1ccn2ccnc2c1)N1CCN(c2ncc(C(F)(F)F)cn2)CC1 (racemic) [Example 91, 7-(1-(4-(5-(trifluoromethyl)pyrimidin-2-yl)piperazin-1-yl)ethyl)imidazo[1,2-a]pyridine]	1 to 10 µM	–
CC(c1ccc2cccnc2n1)N1CCN(c2ncc(C(F)(F)F)cn2)CC1 (racemic) [Example 92, 2-(1-(4-(5-(trifluoromethyl)pyrimidin-2-yl)piperazin-1-yl)ethyl)-1,8-naphthyridine]	0.05 to 0.2 µM	–
CC(c1cnc2cccnc2c1)N1CCN(c2ncc(C(F)(F)F)cn2)CC1 (racemic) [Example 93, 3-(1-(4-(5-(trifluoromethyl)pyrimidin-2-yl)piperazin-1-yl)ethyl)-1,5-naphthyridine]	0.2 to 1 µM	–
COC(=O)c1cnc(N2CCN(C(C)c3ccc4c(c3)OCC4)CC2)nc1 (racemic) [Example 98, Methyl 2-(4-(1-(2,3-dihydrobenzofuran-6-yl)ethyl)piperazin-1-yl)pyrimidine-5-carboxylate]	< 0.05 µM	–
CNC(=O)c1cnc(N2CCN(C(C)c3ccc4c(c3)OCC4)CC2)nc1 (racemic) [Example 99, 2-(4-(1-(2,3-dihydrobenzofuran-6-yl)ethyl)piperazin-1-yl)-N-methylpyrimidine-5-carboxamide]	< 0.05 µM	–
COC(=O)c1ccnc(N2CCN(C(C)c3ccc4c(c3)OCC4)CC2)n1 (racemic) [Example 102, Methyl 2-(4-(1-(2,3-dihydrobenzofuran-6-yl)ethyl)piperazin-1-yl)pyrimidine-4-carboxylate]	< 0.05 µM	–
CNC(=O)c1ccnc(N2CCN(C(C)c3ccc4c(c3)OCC4)CC2)n1 (racemic) [Example 103, 2-(4-(1-(2,3-dihydrobenzofuran-6-yl)ethyl)piperazin-1-yl)-N-methylpyrimidine-4-carboxamide]	< 0.05 µM	–
CC(=O)NC(C)(C)c1cnc(N2CCN(C(C)c3ccc4c(c3)OCC4)CC2)nc1 (racemic) [Example 104]	< 0.05 µM	–
CC(c1ccc2nccnc2c1)N1CCN(c2ncc(C(=O)O)cn2)CC1 (racemic) [Example 106, 2-(4-(1-(quinoxalin-6-yl)ethyl)piperazin-1-yl)pyrimidine-5-carboxylic acid]	0.05 to 0.2 µM	–
CC(=O)NC(C)(C)c1cnc(N2CCN(C(C)c3ccc4nccnc4c3)CC2)nc1 (racemic) [Example 107, N-(2-(2-(4-(1-(quinoxalin-6-yl)ethyl)piperazin-1-yl)pyrimidin-5-yl)propan-2-yl)acetamide]	0.2 to 1 µM	–
CC(=O)Nc1nnc(N2CCN(C(C)c3cnc4cccnc4c3)CC2)s1 (racemic) [Example 111, N-(5-(4-(1-(1,5-naphthyridin-3-yl)ethyl)piperazin-1-yl)-1,3,4-thiadiazol-2-yl)acetamide]	0.05 to 0.2 µM	–
CC(=O)NCc1nnc(N2CCN(C(C)c3ccc4nccnc4c3)CC2)s1 (racemic) [Example 112, N-((5-(4-(1-(quinoxalin-6-yl)ethyl)piperazin-1-yl)-1,3,4-thiadiazol-2-yl)methyl)acetamide]	0.05 to 0.2 µM	–
CC(c1ccc2c(c1)OCC2)N1CCN(c2nnc(CO)s2)CC1 (racemic) [Example 113, (5-(4-(1-(2,3-dihydrobenzofuran-6-yl)ethyl)piperazin-1-yl)-1,3,4-thiadiazol-2-yl)methanol]	< 0.05 µM	–
CC(O)c1nnc(N2CCN(C(C)c3ccc4c(c3)OCC4)CC2)s1 (racemic) [Example 114, 1-(5-(4-(1-(2,3-dihydrobenzofuran-6-yl)ethyl)piperazin-1-yl)-1,3,4-thiadiazol-2-yl)ethan-1-ol]	< 0.05 µM	–
CC(O)c1nnc(N2CCN(C(C)c3ccc4nccnc4c3)CC2)s1 (racemic) [Example 115, 1-(5-(4-(1-(quinoxalin-6-yl)ethyl)piperazin-1-yl)-1,3,4-thiadiazol-2-yl)ethan-1-ol]	–	0.2 to 1 µM
Cc1nnc(N2CCN(C(C)c3ccc4nccnc4c3)CC2)s1 (racemic) [Example 116, 2-methyl-5-(4-(1-(quinoxalin-6-yl)ethyl)piperazin-1-yl)-1,3,4-thiadiazolequinoxaline]	0.2 to 1 µM	–
CCOC(=O)c1nnc(N2CCN(C(C)c3ccc4c(c3)OCC4)CC2)s1 (racemic) [Example 117, Ethyl 5-(4-(1-(2,3-dihydrobenzofuran-6-yl)ethyl)piperazin-1-yl)-1,3,4-thiadiazole-2-carboxylate]	0.05 to 0.2 µM	–
CCOC(=O)c1nnc(N2CCN(C(C)c3ccc4nccnc4c3)CC2)s1 (racemic) [Example 120, Ethyl 5-(4-(1-(quinoxalin-6-yl)ethyl)piperazin-1-yl)-1,3,4-thiadiazole-2-carboxylate]	1 to 10 µM	–
CNC(=O)c1nnc(N2CCN(C(C)c3ccc4nccnc4c3)CC2)s1 (racemic) [Example 121, N-methyl-5-(4-(1-(quinoxalin-6-yl)ethyl)piperazin-1-yl)-1,3,4-thiadiazole-2-carboxamide]	0.2 to 1 µM	–
CC(c1ccc2c(c1)OCC2)N1CCN(c2nnc(CN)s2)CC1 (racemic) [Example 124, (5-(4-(1-(2,3-dihydrobenzofuran-6-yl)ethyl)piperazin-1-yl)-1,3,4-thiadiazol-2-yl)methanamine]	< 0.05 µM	–
CC(c1ccc2nccnc2c1)N1CCN(c2nnc(CN(C)C)s2)CC1 (racemic) [Example 125, N,N-dimethyl-1-(5-(4-(1-(quinoxalin-6-yl)ethyl)piperazin-1-yl)-1,3,4-thiadiazol-2-yl)methanamine]	0.2 to 1 µM	–

Continued, in another order:

IC50 [1]	SMILES	IC50 (OGA IC50 (M), pH 6.5, activity classes defined in μM)
0.05 to 0.2 µM	CC(c1ccc2nccnc2c1)N1CCN(c2ncc(CO)cn2)CC1 (racemic) [Example 86, (2-(4-(1-(Quinoxalin-6-yl)ethyl)piperazin-1-yl)pyrimidin-5-yl) methanol]	–
0.05 to 0.2 µM	CC(c1ccc2nccnc2c1)N1CCN(c2ncc(C(O)C(F)(F)F)cn2)CC1 (racemic) [Example 87, 2,2,2-trifluoro-1-(2-(4-(1-(quinoxalin-6-yl)ethyl)piperazin-1-yl)pyrimidin-5-yl)ethan-1-ol]	–
0.05 to 0.2 µM	CC(C)C(O)c1cnc(N2CCN(C(C)c3ccc4nccnc4c3)CC2)nc1 (racemic) [Example 88, 2-methyl-1-(2-(4-(1-(quinoxalin-6-yl)ethyl)piperazin-1-yl)pyrimidin-5-yl) propan-1-ol]	–
0.05 to 0.2 µM	CC(c1ccc2nccnc2c1)N1CCN(c2ncc(C3(O)CCOCC3)cn2)CC1 (racemic) [Example 89, 4-(2-(4-(1-(quinoxalin-6-yl)ethyl)piperazin-1-yl)pyrimidin-5-yl)tetrahydro-2H-pyran-4-ol]	–
0.2 to 1 µM	CC(c1ccc2nccnc2c1)N1CCN(c2ncc(C3=CCCC3)cn2)CC1 (racemic) [Example 94, 6-(1-(4-(5-(cyclopent-1-en-1-yl)pyrimidin-2-yl)piperazin-1-yl)ethyl)quinoxaline]	–
< 0.05 µM	COC(=O)c1cnc(N2CCN(C(C)c3ccc4scnc4c3)CC2)nc1 (racemic) [Example 95, Methyl 2-(4-(1-(benzo[d]thiazol-5-yl)ethyl)piperazin-1-yl)pyrimidine-5-carboxylate]	–
< 0.05 µM	CNC(=O)c1cnc(N2CCN(C(C)c3ccc4scnc4c3)CC2)nc1 (racemic) [Example 96, 2-(4-(1-(benzo[d]thiazol-5-yl)ethyl)piperazin-1-yl)-N-methylpyrimidine-5-carboxamide]	–
< 0.05 µM	CC(c1ccc2scnc2c1)N1CCN(c2ncc(C(=O)N(C)C)cn2)CC1 (racemic) [Example 97, 2-(4-(1-(benzo[d]thiazol-5-yl)ethyl)piperazin-1-yl)-N,N-dimethylpyrimidine-5-carboxamide]	–
< 0.05 µM	CC(c1ccc2c(c1)OCC2)N1CCN(c2ncc(C(=O)N(C)C)cn2)CC1 (racemic) [Example 100, 2-(4-(1-(2,3-dihydrobenzofuran-6-yl)ethyl)piperazin-1-yl)-N,N-dimethylpyrimidine-5-carboxamide]	–
< 0.05 µM	CC(c1ccc2c(c1)OCC2)N1CCN(c2nccc(C(=O)N(C)C)n2)CC1 (racemic) [Example 101, 2-(4-(1-(2,3-dihydrobenzofuran-6-yl)ethyl)piperazin-1-yl)-N,N-dimethylpyrimidine-4-carboxamide]	–
0.05 to 0.2 µM	COC(=O)c1cnc(N2CCN(C(C)c3ccc4nccnc4c3)CC2)nc1 (racemic) [Example 105, Methyl 2-(4-(1-(quinoxalin-6-yl)ethyl)piperazin-1-yl)pyrimidine-5-carboxylate]	–
< 0.05 µM	CC(=O)NCc1nnc(N2CCN(C(C)c3ccc4c(c3)OCC4)CC2)s1 (racemic) [Example 110]	–
< 0.05 µM	CNC(=O)c1nnc(N2CCN(C(C)c3ccc4c(c3)OCC4)CC2)s1 (racemic) [Example 118, 5-(4-(1-(2,3-dihydrobenzofuran-6-yl)ethyl)piperazin-1-yl)-N-methyl-1,3,4-thiadiazole-2-carboxamide]	–
< 0.05 µM	CC(c1ccc2c(c1)OCC2)N1CCN(c2nnc(C(=O)N(C)C)s2)CC1 (racemic) [Example 119, 5-(4-(1-(2,3-dihydrobenzofuran-6-yl)ethyl)piperazin-1-yl)-N,N-dimethyl-1,3,4-thiadiazole-2-carboxamide]	–
0.2 to 1 µM	CC(c1ccc2nccnc2c1)N1CCN(c2nnc(C(=O)N(C)C)s2)CC1 (racemic) [Example 122, N,N-dimethyl-5-(4-(1-(quinoxalin-6-yl)ethyl)piperazin-1-yl)-1,3,4-thiadiazole-2 carboxamide]	–
< 0.05 µM	CC(c1ccc2c(c1)OCC2)N1CCN(c2nnc(CN(C)C)s2)CC1 (racemic) [Example 123, 1-(5-(4-(1-(2,3-dihydrobenzofuran-6-yl)ethyl)piperazin-1-yl)-1,3,4-thiadiazol-2-yl)-N,N-dimethylmethanamine]	–
